Experimental data as given in ChEMBL document CHEMBL5380877, “Azulene as a biphenyl mimetic in orexin/hypocretin receptor agonists” (Bioorg Med Chem, 2023).
pEC50, pKi: −log10 of the molar value.

target: T1, Orexin/Hypocretin receptor type 1 (Homo sapiens, UniProt O43613); test: Agonist activity at human OX1 receptor expressed in CHO cells assessed as increase in Ca2+ accumulation level measured after 24 hrs by FLIPR calcium 4 assay; assay type: functional, cell-based
T1 sequence (O43613 whole entry): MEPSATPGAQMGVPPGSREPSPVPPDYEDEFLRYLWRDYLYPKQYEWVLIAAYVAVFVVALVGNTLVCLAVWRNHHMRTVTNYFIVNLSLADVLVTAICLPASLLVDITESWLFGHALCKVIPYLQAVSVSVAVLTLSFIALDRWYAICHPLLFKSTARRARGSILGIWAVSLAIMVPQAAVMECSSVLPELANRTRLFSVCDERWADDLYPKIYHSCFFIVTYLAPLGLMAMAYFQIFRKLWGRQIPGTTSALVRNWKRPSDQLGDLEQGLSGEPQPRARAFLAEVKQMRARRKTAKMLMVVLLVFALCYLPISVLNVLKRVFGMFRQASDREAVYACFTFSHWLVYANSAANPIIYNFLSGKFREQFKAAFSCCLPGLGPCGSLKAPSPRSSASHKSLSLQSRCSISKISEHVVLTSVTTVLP

With `Cc1ccc2c(C(=O)N(C)C)cc(S(=O)(=O)Nc3cccc(NCCNC(=O)c4cccc(C)c4)c3)c-2cc1` as the compound, how does the pEC50 read?
Its pEC50 is 5.79.

target: T2, Orexin receptor type 2 (Homo sapiens, UniProt O43614); test: Antagonist activity at human OX2 receptor expressed in CHO cells assessed as reduction in orexin-A induced calcium level at 10 uM incubated for 24 hrs by FLIPR calcium 4 assay; assay type: functional, cell-based
T2 sequence (O43614 whole entry): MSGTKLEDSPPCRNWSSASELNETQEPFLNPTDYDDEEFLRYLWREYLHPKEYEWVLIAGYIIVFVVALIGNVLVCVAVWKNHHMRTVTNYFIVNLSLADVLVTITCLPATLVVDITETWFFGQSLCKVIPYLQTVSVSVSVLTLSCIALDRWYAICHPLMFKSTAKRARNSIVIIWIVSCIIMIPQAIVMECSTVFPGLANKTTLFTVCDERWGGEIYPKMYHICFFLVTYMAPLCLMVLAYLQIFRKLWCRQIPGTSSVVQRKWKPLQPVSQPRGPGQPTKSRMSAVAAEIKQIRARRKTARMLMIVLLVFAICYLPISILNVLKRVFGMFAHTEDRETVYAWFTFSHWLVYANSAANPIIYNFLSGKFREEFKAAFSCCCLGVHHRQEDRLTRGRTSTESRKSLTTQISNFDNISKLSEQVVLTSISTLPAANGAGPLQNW

With `Cc1ccc2c(C(=O)N(C)C)cc(S(=O)(=O)Nc3cccc(N(CCNC(=O)c4cccc(C)c4)C(=O)C(F)(F)F)c3)c-2cc1` as the compound, how does the pKi read?
Its pKi is < 5.00.

With `CN(C)C(=O)c1ccc2c(C(=O)N(C)C)cc(S(=O)(=O)O)c-2cc1` as the compound, how does the pKi read?
Its pKi is < 5.00.

How did the pKi turn out when `Cc1cccc(C(=O)NCCN(C(=O)C(F)(F)F)c2cccc(NS(=O)(=O)c3cc(C(=O)C(F)(F)F)c4ccc(C(=O)N(C)C)ccc3-4)c2)c1` was run?
Its pKi is < 5.00.

With `CN(C)C(=O)c1ccc2ccc(C(=O)N(C)C)c-2cc1` as the compound, how does the pKi read?
The pKi was < 5.00.

With `Cc1ccc2c(C(=O)C(F)(F)F)cc(S(=O)(=O)O)c-2cc1` as the compound, how does the pKi read?
Its pKi is < 5.00.

`CN(C)C(=O)c1ccc2ccc(C(=O)C(F)(F)F)c-2cc1` was tested. Which pKi did it give?
Its pKi is < 5.00.

How did the pKi turn out when `Cc1cccc(C(=O)NCCNc2cccc(NS(=O)(=O)c3cc(C(=O)C(F)(F)F)c4ccc(C(=O)N(C)C)ccc3-4)c2)c1` was run?
The pKi was < 5.00.

`Cc1ccc2c(C(=O)C(F)(F)F)cc(S(=O)(=O)Nc3cccc(NCCNC(=O)c4cccc(C)c4)c3)c-2cc1` was tested. Which pKi did it give?
Its pKi is 5.30.

How did the pKi turn out when `Cc1ccc2c(C(=O)N(C)C)cc(S(=O)(=O)O)c-2cc1` was run?
The pKi was < 5.00.

target: T1, Orexin/Hypocretin receptor type 1; test: Antagonist activity at human OX1 receptor expressed in CHO cells assessed as reduction in orexin-A induced calcium level at 10 uM incubated for 24 hrs by FLIPR calcium 4 assay; assay type: functional, cell-based

With `Cc1ccc2c(C(=O)N(C)C)cc(S(=O)(=O)Nc3cccc(NCCNC(=O)c4cccc(C)c4)c3)c-2cc1` as the compound, how does the pKi read?
Its pKi is 5.40.
